US8546579B2, “Bicycloheteroaryl compounds as P2X7 modulators and uses thereof” (Evotec (US) Inc., priority 2006, dated 2013)

Target: T1, P2X7 receptor (Homo sapiens, UniProt Q99572)
T1 construct: host or cells: THP-1 cells differentiated with LPS and IFN-γ
T1 sequence (Q99572 1-595): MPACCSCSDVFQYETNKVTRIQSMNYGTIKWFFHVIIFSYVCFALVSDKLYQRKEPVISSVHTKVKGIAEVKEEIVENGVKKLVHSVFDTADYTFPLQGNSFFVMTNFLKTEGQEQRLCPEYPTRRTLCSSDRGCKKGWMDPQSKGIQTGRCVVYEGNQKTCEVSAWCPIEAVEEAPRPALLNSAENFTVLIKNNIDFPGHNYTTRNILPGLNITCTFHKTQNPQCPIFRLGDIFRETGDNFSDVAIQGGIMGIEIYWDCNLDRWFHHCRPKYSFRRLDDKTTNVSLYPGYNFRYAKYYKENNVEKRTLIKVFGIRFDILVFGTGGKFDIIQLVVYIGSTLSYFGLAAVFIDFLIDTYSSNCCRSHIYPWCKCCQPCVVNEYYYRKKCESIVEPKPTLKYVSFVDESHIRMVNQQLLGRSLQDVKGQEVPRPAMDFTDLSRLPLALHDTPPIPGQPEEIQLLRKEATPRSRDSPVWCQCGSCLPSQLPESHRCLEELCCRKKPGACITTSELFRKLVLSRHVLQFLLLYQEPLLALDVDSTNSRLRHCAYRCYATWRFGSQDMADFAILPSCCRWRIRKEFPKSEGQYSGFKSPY
Assay: IL-1β release assay in differentiated THP-1 cells stimulated with BzATP (Example 9)
Type: cell-based
Details: for inhibition at 0.3 µM: 0.3 μM compound, '+' class symbols, read-out: IL-1β % Inhib. @ 0.3 μM; for inhibition at 0.3 µM / inhibition at 0.1 µM: differentiated THP-1 cells, BzATP 250 uM; for IC50: THP-1 cells, BzATP-stimulated IL-1β release, four parameter logistic fit; for inhibition at 0.1 µM: 0.1 μM compound, '*' class symbols, read-out: IL-1β % Inhib. (asterisk classes, 0.1 μM)
Description: THP-1 cells (ATCC Cat # 285-IF-100) are plated in 96 well plates at a concentration of 200,000 cells per well and allowed to differentiate in RPMI-1640 media (ATCC Cat # 30-2001) containing 10% FBS, 100 IU/mL penicillin, 100 ug/mL streptomycin, 100 ng/mL LPS and 100 ng/mL IFN-γ for 16 hours. Following differentiation, the cells are treated for an additional 2 hours in RPMI-1640 media containing 100 IU/mL penicillin, 100 ug/mL streptomycin and fresh LPS at 100 ng/mL. The cells are then pretreated for 30 minutes with the compound of interest at the appropriate concentration in RPMI media containing 100 IU/mL penicillin, 100 ug/mL streptomycin. Following the pretreatment 2′,3′-O-(4-benzoylbenzoyl)-adenosine 5′-triphosphate (Sigma Aldrich Cat # B6396) is added to a final concentration of 250 uM and the cells are incubated for an additional 45 minutes. 30 uL of cell supernatant is then collected and IL-1β levels determined via ELISA (R&D systems Cat. # HSLB50) according to manufacturer's recommendations using the Tecan Safire plate reader. Background adjusted IL-1β levels of drug treated and non-treated cells are used to calculate the percent inhibition.
The compounds set forth in Table 1 were tested for activity in a cellular model as described herein. Specifically, cells were pretreated with differing amounts of the compound under test and released IL-1β determined as in Example 9, above. Measurements were made and IC50 values, presented in Table 2, below, were determined by fitting the data to a four parameter logistic equation using GraphPad Prism software (GraphPad Software, Inc). The equation may be expressed by the following formula: Y=Bottom+(Top−Bottom)/(1+10^((Log EC50−X)*HillSlope)) Where X is the logarithm of concentration, Y is the response and Y starts at Bottom and goes to Top with a sigmoid shape.

| inhibition at 0.3 µM [%] | IC50 [µM] | inhibition at 0.1 µM [%] | SMILES |
| --- | --- | --- | --- |
| 51 to 75 | 0.24 |  | COc1ccc(CC(=O)Nc2cccc3c(=O)n(CCN(C)C)ccc23)cc1 [Compound 1001] |
| ≥ 76 | 0.0723 |  | Cc1ccc(CCC(=O)Nc2cccc3c(=O)n(CCN(C)C)ccc23)cc1 [Compound 1002] |
| 0 to 25 | > 1 |  | CN(C)CCn1ccc2c(NC(=O)CCc3ccccc3)cccc2c1=O [Compound 1003] |
| ≥ 76 | 0.108 |  | CN(C)CCn1ccc2c(NC(=O)Cc3ccc(Cl)cc3)cccc2c1=O [Compound 1004] |
| ≥ 76 | 0.0396 |  | Cc1ccc(CC(=O)Nc2cccc3c(=O)n(CCN(C)C)ccc23)cc1 [Compound 1005] |
| 0 to 25 | 0.0992 |  | CN(C)CCn1ccc2c(NC(=O)c3ccccc3)cccc2c1=O [Compound 1006, N-[2-(2-Dimethylamino-ethyl)-1-oxo-1,2-dihydro-isoquinolin-5-yl]-benzamide] |
| 0 to 25 | > 1 |  | Cc1ccccc1C(=O)Nc1cccc2c(=O)n(CCN(C)C)ccc12 [Compound 1007] |
|  | > 1 |  | CN(C)CCn1ccc2c(NC(=O)c3ccc(S(C)(=O)=O)cc3)cccc2c1=O [Compound 1008] |
| 0 to 25 | > 1 |  | CN(C)CCn1ccc2c(NC(=O)CCc3ccc(S(C)(=O)=O)cc3)cccc2c1=O [Compound 1009] |
| 0 to 25 | > 1 |  | CN(C)CCn1ccc2c(NC(=O)CC3CCN(C(=O)OC(C)(C)C)CC3)cccc2c1=O [Compound 1010] |
| 0 to 25 | > 1 |  | CC(=O)OCCn1ccc2c(NC(=O)CC3CCN(C(=O)OC(C)(C)C)CC3)cccc2c1=O [Compound 1011] |
| 26 to 50 | 0.421 |  | CC(=O)OCCn1ccc2c(NC(=O)C3CCN(C(=O)OC(C)(C)C)CC3)cccc2c1=O [Compound 1012] |
| ≥ 76 | 0.000355 |  | O=C(CC1CCCCCC1)Nc1cccc2c(=O)n(Cc3ccc4c(c3)OCCO4)ccc12 [Compound 1013, 2-Cycloheptyl-N-[2-(2,3-dihydro-benzo[1,4]dioxin-6-ylmethyl)-1-oxo-1,2-dihydro-isoquinolin-5-yl]-acetamide] |
| 26 to 50 | 0.326 |  | CC(=O)OCCn1ccc2c(NC(=O)c3ccc(C(F)(F)F)cc3C(F)(F)F)cccc2c1=O [Compound 1014] |
| ≥ 76 | 0.171 |  | CC(=O)OCCn1ccc2c(NC(=O)CC3(O)CCCCCC3)cccc2c1=O [Compound 1015] |
| ≥ 76 | 0.338 |  | CC(=O)OCCn1ccc2c(NC(=O)Cc3ccc(C(F)(F)F)cc3)cccc2c1=O [Compound 1016] |
| 26 to 50 | 0.367 |  | CN(C)CCn1ccc2c(NC(=O)C(Cl)c3ccccc3)cccc2c1=O (stereo not shown) [Compound 1017] |
| 0 to 25 | > 1 |  | CN(C)CCn1ccc2c(NC(=O)Cc3ccc(F)cc3)cccc2c1=O [Compound 1018] |
| 0 to 25 | > 1 |  | CN(C)CCn1ccc2c(NC(=O)Cc3ccccc3)cccc2c1=O [Compound 1019] |
| 0 to 25 | > 1 |  | CCC(C(=O)Nc1cccc2c(=O)n(CCN(C)C)ccc12)c1ccccc1 (stereo not shown) [Compound 1020] |
| ≥ 76 | > 1 |  | COc1cccc(CC(=O)Nc2cccc3c(=O)n(CCN(C)C)ccc23)c1 [Compound 1021] |
| 0 to 25 | > 1 |  | COc1ccc(CC(=O)Nc2cccc3c(=O)n(CCN(C)C)ccc23)c(OC)c1 [Compound 1022] |
| ≥ 76 | 0.0535 |  | CC(=O)OCCn1ccc2c(NC(=O)Cc3ccc(Cl)c(Cl)c3)cccc2c1=O [Compound 1023] |
| ≥ 76 | 0.0315 |  | Cn1ccc2c(NC(=O)CC3CCCCCC3)cccc2c1=O [Compound 1024, 2-Cycloheptyl-N-(2-methyl-1-oxo-1,2-dihydro-isoquinolin-5-yl)-acetamide] |
| 0 to 25 |  |  | CCOc1ccc(C(=O)Nc2cccc3c(=O)n(CC4CCOCC4)ccc23)c(O)c1 [Compound 1025] |
|  |  | 26 to 50 | O=C(Nc1cccc2c(=O)n(CC3CCOCC3)ccc12)c1ccc(-c2ccccc2)o1 [Compound 1026] |
| 0 to 25 |  |  | COc1cccc(CCC(=O)Nc2cccc3c(=O)n(CC4CCOCC4)ccc23)c1 [Compound 1027] |

| inhibition at 0.3 µM [%] | IC50 [µM] | inhibition at 0.1 µM [%] | SMILES |
| --- | --- | --- | --- |
| 0 to 25 |  |  | Cc1ccc(C)c(CC(=O)Nc2cccc3c(=O)n(CC4CCOCC4)ccc23)c1 [Compound 1028] |
| 0 to 25 |  |  | COc1ccc(C(=O)Nc2cccc3c(=O)n(CC4CCOCC4)ccc23)cc1Cl [Compound 1029] |
| 0 to 25 |  |  | CCOc1cccc(C(=O)Nc2cccc3c(=O)n(CC4CCOCC4)ccc23)c1 [Compound 1030] |
| 26 to 50 |  |  | O=C(CCc1ccccc1Cl)Nc1cccc2c(=O)n(CC3CCOCC3)ccc12 [Compound 1031] |
| 0 to 25 |  |  | O=C(CCc1ccc2c(c1)OCO2)Nc1cccc2c(=O)n(CC3CCOCC3)ccc12 [Compound 1032] |
| 0 to 25 |  |  | Cc1cc(C(=O)Nc2cccc3c(=O)n(CC4CCOCC4)ccc23)ccc1Cl [Compound 1033] |
|  |  | 26 to 50 | CC1CCC(C(=O)Nc2cccc3c(=O)n(CCN(C)C)ccc23)CC1 (stereo not shown) [Compound 1034] |
|  |  | 0 to 25 | CN(C)CCn1ccc2c(NC(=O)c3ccc(-c4ccccc4)o3)cccc2c1=O [Compound 1035] |
| 0 to 25 |  |  | Cc1cc(C)c(CC(=O)Nc2cccc3c(=O)n(CCN(C)C)ccc23)c(C)c1 [Compound 1036] |
| 0 to 25 |  |  | CN(C)CCn1ccc2c(NC(=O)CCc3ccccc3Cl)cccc2c1=O [Compound 1037] |
| 0 to 25 |  |  | CN(C)CCn1ccc2c(NC(=O)CCc3ccc4c(c3)OCO4)cccc2c1=O [Compound 1038] |
|  |  | 0 to 25 | COc1ccc(C(=O)Nc2cccc3c(=O)n(CCN4CCOCC4)ccc23)c(C)c1 [Compound 1039] |
| 0 to 25 |  |  | O=C(Nc1cccc2c(=O)n(CCN3CCOCC3)ccc12)c1ccc(-c2ccccc2)o1 [Compound 1040] |
|  |  | 0 to 25 | COc1cccc(CCC(=O)Nc2cccc3c(=O)n(CCN4CCOCC4)ccc23)c1 [Compound 1041] |
| 0 to 25 |  |  | Cc1ccc(C)c(CC(=O)Nc2cccc3c(=O)n(CCN4CCOCC4)ccc23)c1 [Compound 1042] |
| 0 to 25 |  |  | COc1ccc(C(=O)Nc2cccc3c(=O)n(CCN4CCOCC4)ccc23)cc1Cl [Compound 1043] |
| 0 to 25 |  |  | CCOc1cccc(C(=O)Nc2cccc3c(=O)n(CCN4CCOCC4)ccc23)c1 [Compound 1044] |
| 0 to 25 |  |  | O=C(CCc1ccccc1Cl)Nc1cccc2c(=O)n(CCN3CCOCC3)ccc12 [Compound 1045] |
| 0 to 25 |  |  | O=C(CCc1ccc2c(c1)OCO2)Nc1cccc2c(=O)n(CCN3CCOCC3)ccc12 [Compound 1046] |
|  |  | 0 to 25 | CC1CCC(C(=O)Nc2cccc3c(=O)n(CC(C)(C)C)ccc23)CC1 (stereo not shown) [Compound 1047] |
|  |  | 0 to 25 | Cc1ccccc1CCC(=O)Nc1cccc2c(=O)n(CC(C)(C)C)ccc12 [Compound 1048] |
| 0 to 25 |  |  | COc1cccc(CCC(=O)Nc2cccc3c(=O)n(CC(C)(C)C)ccc23)c1 [Compound 1049] |
| 0 to 25 |  |  | Cc1cc(C)c(CC(=O)Nc2cccc3c(=O)n(CC(C)(C)C)ccc23)c(C)c1 [Compound 1050] |
| 0 to 25 |  |  | Cc1ccc(C)c(CC(=O)Nc2cccc3c(=O)n(CC(C)(C)C)ccc23)c1 [Compound 1051] |
| 0 to 25 |  |  | CCOc1cccc(C(=O)Nc2cccc3c(=O)n(CC(C)(C)C)ccc23)c1 [Compound 1053] |
| 0 to 25 |  |  | CC(C)(C)Cn1ccc2c(NC(=O)CCc3ccccc3Cl)cccc2c1=O [Compound 1054] |
